Measurements as given in ChEMBL document CHEMBL4316625, “Double prodrugs of a fosmidomycin surrogate as antimalarial and antitubercular agents” (Bioorg Med Chem Lett, 2019).
In brackets after ≈: the same amount, converted by molar mass.

What was measured:
[1] = Cytotoxicity in human MRC5 cells assessed as reduction in cell viability incubated for 24 hrs by resazurin-based cytotoxicity assay
[2] = system: Mycobacterium tuberculosis; assay: Antitubercular activity against Mycobacterium tuberculosis H37Rv reduction in bacterial multiplication incubated for 7 days by luminometric assay; format: functional; details: 168 h
[3] = Oral bioavailability in healthy human at 500 mg; format: ADME, organism-based; details: in vivo
Plasmodium falciparum = assay: Antiplasmodial activity against Plasmodium falciparum K1 infected in human erythrocytes assessed as reduction in parasite multiplication incubated for 72 hrs by Malstat method; format: functional, organism-based; details: K1, 72 h

Question: Which CC50 at 24 h [1] does the source give for `O=CN(O)CCCP(=O)([O-])O.[Na+]` [FOSMIDOMYCIN SODIUM] here?
Answer: Its CC50 at 24 h is over 64 µM.

Question: What about the MIC [2] of the same compound?
Answer: Its MIC is over 64 µM.

Question: What about the bioavailability [3] of the same compound?
Answer: The bioavailability was 20 to 40%.

Question: For `CN(OCc1ccc([N+](=O)[O-])s1)C(=O)CCCP(=O)(OCOC(=O)C(C)(C)C)OCOC(=O)C(C)(C)C`, which CC50 at 24 h [1] is on record?
Answer: Its CC50 at 24 h is 20.5 µM.

Question: What about the MIC [2] of the same compound?
Answer: Its MIC is 12.5 µM (≈ 7.08 µg/mL).

Question: And the IC50 (Plasmodium falciparum)?
Answer: Its IC50 is 4.69 µM.

Question: Which results are given for `CC(=O)ON(C)C(=O)CCCP(=O)(OCOC(=O)C(C)(C)C)OCOC(=O)C(C)(C)C`?
Answer: CC50 at 24 h [1]: > 64 µM; IC50 (Plasmodium falciparum): 1.34 µM

Question: Which results are given for `CN(OC(=O)c1ccccc1)C(=O)CCCP(=O)(OCOC(=O)C(C)(C)C)OCOC(=O)C(C)(C)C`?
Answer: CC50 at 24 h [1]: > 64 µM; MIC [2]: 50 µM (≈ 26.5 µg/mL); IC50 (Plasmodium falciparum): 1.08 µM

Question: Which results are given for `CCCCCCCCC(=O)ON(C)C(=O)CCCP(=O)(OCOC(=O)C(C)(C)C)OCOC(=O)C(C)(C)C`?
Answer: CC50 at 24 h [1]: > 64 µM; MIC [2]: 50 µM (≈ 28.3 µg/mL); IC50 (Plasmodium falciparum): 1.41 µM

Question: Which CC50 at 24 h [1] does the source give for `CN(O)C(=O)CCCP(=O)(OCOC(=O)C(C)(C)C)OCOC(=O)C(C)(C)C` here?
Answer: The CC50 at 24 h was over 64 µM.

Question: What about the MIC [2] of the same compound?
Answer: Its MIC is over 50 µM.

Question: Which CC50 at 24 h [1] does the source give for `CN(OC(=O)NCc1ccccc1)C(=O)CCCP(=O)(OCOC(=O)C(C)(C)C)OCOC(=O)C(C)(C)C` here?
Answer: The CC50 at 24 h was 27.9 µM.

Question: What about the MIC [2] of the same compound?
Answer: Its MIC is over 50 µM.

Question: And the IC50 (Plasmodium falciparum)?
Answer: The IC50 was 0.64 µM.

Question: Which CC50 at 24 h [1] does the source give for `CN(OC(=O)OCc1ccccc1)C(=O)CCCP(=O)(OCOC(=O)C(C)(C)C)OCOC(=O)C(C)(C)C` here?
Answer: The CC50 at 24 h was over 42 µM.

Question: And the MIC [2]?
Answer: Its MIC is over 50 µM.

Question: What about the IC50 (Plasmodium falciparum) of the same compound?
Answer: Its IC50 is over 36 µM.

Question: With `CN(OCc1ccc([N+](=O)[O-])o1)C(=O)CCCP(=O)(OCOC(=O)C(C)(C)C)OCOC(=O)C(C)(C)C` as the compound, how does the CC50 at 24 h [1] read?
Answer: Its CC50 at 24 h is 26.3 µM.

Question: And the MIC [2]?
Answer: The MIC was 12.5 µM (≈ 6.88 µg/mL).

Question: And the IC50 (Plasmodium falciparum)?
Answer: The IC50 was 4.42 µM.

Question: Which CC50 at 24 h [1] does the source give for `CN(OC(=O)Nc1ccccc1)C(=O)CCCP(=O)(OCOC(=O)C(C)(C)C)OCOC(=O)C(C)(C)C` here?
Answer: Its CC50 at 24 h is 33.4 µM.

Question: And the IC50 (Plasmodium falciparum)?
Answer: Its IC50 is 3.34 µM.

Question: Which CC50 at 24 h [1] does the source give for `CCCCCCCCC(=O)Oc1ccc(CON(C)C(=O)CCCP(=O)(OCOC(=O)C(C)(C)C)OCOC(=O)C(C)(C)C)cc1` here?
Answer: The CC50 at 24 h was over 64 µM.

Question: And the MIC [2]?
Answer: Its MIC is 50 µM (≈ 33.6 µg/mL).

Question: What about the IC50 (Plasmodium falciparum) of the same compound?
Answer: Its IC50 is 19 µM.

Question: Which CC50 at 24 h [1] does the source give for `CCNC(=O)ON(C)C(=O)CCCP(=O)(OCOC(=O)C(C)(C)C)OCOC(=O)C(C)(C)C` here?
Answer: Its CC50 at 24 h is 25.9 µM.

Question: And the MIC [2]?
Answer: Its MIC is over 50 µM.

Question: And the IC50 (Plasmodium falciparum)?
Answer: Its IC50 is 2.52 µM.

Question: Which results are given for `CN(OCc1ccc([N+](=O)[O-])cc1)C(=O)CCCP(=O)(OCOC(=O)C(C)(C)C)OCOC(=O)C(C)(C)C`?
Answer: CC50 at 24 h [1]: 26.5 µM; MIC [2]: > 50 µM; IC50 (Plasmodium falciparum): 8.79 µM
